Results as given in patent publication US10688099B2, “Methods for modulating the amount of RNA transcripts” (PTC Therapeutics, Inc., priority 2013, dated 2020).

Tested on: RNA isoforms in PNN 1-46 SMA type I patient-derived fibroblasts
Assay: RNA Abundance Modulation (RNA isoform abundance, iFPM, HiSeq RNA sequencing)
Assay type: cell-based, human
Settings: 3 μM
Experimental: Cells from a cell line of interest are cultured in conditions sufficient to yield the number of cells capable of generating enough RNA for subsequent sequencing steps. Cells from the tested cell line are contacted with a compound described herein.
To culture said cells, they are seeded, at appropriate concentrations in a volume of media in a cell culture container and incubated for 4, 5, 6, 7, 8, 9, 10, or more hours. A concentrated solution of compound in a vehicle (e.g., DMSO) is then added in sufficient volume to result in the intended final concentration of the compound, for example 100 nM, 500 nM, 1 μM, 5 μM, 10 μM, 15 μM, 20 μM, or more. The cells may also be treated with vehicle alone, as a control. A number of replicates of each concentration or control may be made (e.g., 2 replicates). The cells are then incubated at a constant temperature appropriate for cell culture of the particular cell line (e.g., 37° C.) for 6, 12, 18, 24, 48, or more hours. After incubation, the growth medium is removed and the cells are washed with the appropriate buffer (e.g., PBS). Cells are then removed from adherence to the cell culture container by treatment with a solution containing trypsin, and the trypsin subsequently quenched with the appropriate volume of buffer (e.g., DMEM-FBS). The cells are then pelleted with gentle centrifugation (e.g., ≤90×g centrifugal force) and resuspended in a buffer to lyse the cells for extraction of RNA. The cell lysates may then be frozen (e.g., at −80° C.) or, alternately, may immediately be used in a procedure to purify the RNA (e.g. by use of the RNEASY PLUS® minikit). The RNA from cell lysates is eluted in the appropriate volume of buffer (e.g., RNEASE-FREE H2O®). The resulting purified RNA may then be sequenced (e.g., using RNASeq) or analyzed using a human exon array (e.g., by GENECHIP® human exon array) to determine changes in the RNA levels in those cells treated with compound compared to those cells treated only with DMSO. The purified RNA may also be quantified by other methods known in the art.
Using the RNA data obtained from sequencing, exon array, or other methods, a statistical analysis can reveal changes in the RNA levels of compound-treated compared with control. For example, t-test p-values may be calculated for the data obtained through sequencing and exon array methods in order to compare compound-treated cells to those treated with the DMSO control. […] Analysis of the sequencing and exon array data may then also yield predictions about the cause of the aberrant amount of an RNA transcript in the cells (e.g., perturbation of RNA splicing, RNA transcription, or RNA stability). These predictions may be further confirmed by methods known in the art. For example, RT-PCR and RT-qPCR may be used to confirm the change in amount of RNA transcripts for one or more particular transcripts of interest.
Following the methods described above in Example 1, PNN 1-46 SMA type I patient-derived fibroblasts were treated with 300 nM or 3 μM Compounds 774 and 808 in 0.5% DMSO.
700,000 cells were seeded in 10 mL of medium (DMEM plus 10% FBS) in a T-75 flask. Cells were allowed to attach for at least 4 hrs, after which 50 μL of a 200× compound solution (100% DMSO) was added to each well, and the plate was incubated at 37° C. for 24 hrs.
At the end of the incubation period, the supernatant was removed and the cells where washed with PBS. TrypLE (Invitrogen) express solution was added (e.g. 1.5 mL per one T75 flask). The flasks were incubated for 3 to 5 min at 37° C. The trypsin was then quenched, e.g., by adding 10 mL DMEM-FBS.
Next, the cells were pelleted using gentle centrifugation without exceeding 90×g centrifugal force. The supernatant was removed and the cell pellet was re-suspended in 600 μL RLT buffer (the RLT buffer was supplemented with beta-mercaptoethanol according to the RNeasy protocol manual) by pipetting up and down until the pellet was completely dissolved […]

SMILES: CCc1nc(C)cn2nc(-c3cc(=O)n4cc(C5CCN(C)CC5)cc(C)c4n3)cc12 [Compound 774]
- amp FC (x + 1) (TOMM5 CR627326): 2.36
- ave Cpd (TOMM5 CR627326): 4 iFPM
- FC (x + 1) (TOMM5 NM_001001790): 0.3953
- L2FC (x + 1) (TOMM5 NM_001001790): −1.339
- L2abs (Cpd-DMSO) (TOMM5 NM_001001790): 10.21
- abs (Cpd-DMSO) (TOMM5 NM_001001790): 1185 iFPM
- amp FC (x + 1) (TOMM5 NM_001001790): 2.53
- ave Cpd (TOMM5 NM_001001790): 774 iFPM
- FC (x + 1) (TOMM5 NM_001134484): 0.2630
- L2FC (x + 1) (TOMM5 NM_001134484): −1.927
- L2abs (Cpd-DMSO) (TOMM5 NM_001134484): 3.41
- abs (Cpd-DMSO) (TOMM5 NM_001134484): 11 iFPM
- amp FC (x + 1) (TOMM5 NM_001134484): 3.80
- ave Cpd (TOMM5 NM_001134484): 3 iFPM
- FC (x + 1) (TOMM5 NM_001134485): 0.4705
- L2FC (x + 1) (TOMM5 NM_001134485): −1.088
- L2abs (Cpd-DMSO) (TOMM5 NM_001134485): 4.88
- abs (Cpd-DMSO) (TOMM5 NM_001134485): 29 iFPM
- amp FC (x + 1) (TOMM5 NM_001134485): 2.13
- ave Cpd (TOMM5 NM_001134485): 25 iFPM
- FC (x + 1) (TRAF3 NM_003300): 0.1622
- L2FC (x + 1) (TRAF3 NM_003300): −2.624
- L2abs (Cpd-DMSO) (TRAF3 NM_003300): 8.22
- abs (Cpd-DMSO) (TRAF3 NM_003300): 298 iFPM
- amp FC (x + 1) (TRAF3 NM_003300): 6.17
- ave Cpd (TRAF3 NM_003300): 57 iFPM
- FC (x + 1) (TRAF3 NM_145725): 0.7367
- L2FC (x + 1) (TRAF3 NM_145725): −0.441
- L2abs (Cpd-DMSO) (TRAF3 NM_145725): 8.08
- abs (Cpd-DMSO) (TRAF3 NM_145725): 271 iFPM
- amp FC (x + 1) (TRAF3 NM_145725): 1.36
- ave Cpd (TRAF3 NM_145725): 757 iFPM
- FC (x + 1) (TRAF3 NM_145726): 1.0000
- L2FC (x + 1) (TRAF3 NM_145726): 0.000
- L2abs (Cpd-DMSO) (TRAF3 NM_145726): 0
- abs (Cpd-DMSO) (TRAF3 NM_145726): 0 iFPM
- amp FC (x + 1) (TRAF3 NM_145726): 1.00
- ave Cpd (TRAF3 NM_145726): 0 iFPM
- FC (x + 1) (TRAF3 NM_001199427): 1.2405
- L2FC (x + 1) (TRAF3 NM_001199427): 0.311
- L2abs (Cpd-DMSO) (TRAF3 NM_001199427): 2.15
- abs (Cpd-DMSO) (TRAF3 NM_001199427): 4 iFPM
- amp FC (x + 1) (TRAF3 NM_001199427): 1.24
- ave Cpd (TRAF3 NM_001199427): 22 iFPM
- FC (x + 1) (TRAK1 AK295848): 1.1521
- L2FC (x + 1) (TRAK1 AK295848): 0.204
- L2abs (Cpd-DMSO) (TRAK1 AK295848): 6.64
- abs (Cpd-DMSO) (TRAK1 AK295848): 100 iFPM
- amp FC (x + 1) (TRAK1 AK295848): 1.15
- ave Cpd (TRAK1 AK295848): 755 iFPM
- FC (x + 1) (TRAK1 NM_014965): 0.0190
- L2FC (x + 1) (TRAK1 NM_014965): −5.718
- L2abs (Cpd-DMSO) (TRAK1 NM_014965): 5.69
- abs (Cpd-DMSO) (TRAK1 NM_014965): 52 iFPM
- amp FC (x + 1) (TRAK1 NM_014965): 52.63
- ave Cpd (TRAK1 NM_014965): 0 iFPM
- FC (x + 1) (TRAK1 NM_001042646): 0.6949
- L2FC (x + 1) (TRAK1 NM_001042646): −0.525
- L2abs (Cpd-DMSO) (TRAK1 NM_001042646): 7.09
- abs (Cpd-DMSO) (TRAK1 NM_001042646): 136 iFPM
- amp FC (x + 1) (TRAK1 NM_001042646): 1.44
- ave Cpd (TRAK1 NM_001042646): 309 iFPM
- FC (x + 1) (TRAK1 NM_001265608): 0.8894
- L2FC (x + 1) (TRAK1 NM_001265608): −0.169
- L2abs (Cpd-DMSO) (TRAK1 NM_001265608): 6.46
- abs (Cpd-DMSO) (TRAK1 NM_001265608): 88 iFPM
- amp FC (x + 1) (TRAK1 NM_001265608): 1.12
- ave Cpd (TRAK1 NM_001265608): 705 iFPM
- FC (x + 1) (TRAK1 NM_001265610): 0.6862
- L2FC (x + 1) (TRAK1 NM_001265610): −0.543
- L2abs (Cpd-DMSO) (TRAK1 NM_001265610): 3.13
- abs (Cpd-DMSO) (TRAK1 NM_001265610): 9 iFPM
- amp FC (x + 1) (TRAK1 NM_001265610): 1.46
- ave Cpd (TRAK1 NM_001265610): 18 iFPM
- FC (x + 1) (TRAPPC12 AK094181): 1.2209
